Calls of active or inactive are those of the source. No cut-off for these calls is given here.
Assays:
[1] = test system: TK-10; assay: Cytotoxicity against human TK10 cells after 48 hrs by SRB assay; format: functional, cell-based; conditions: TK-10, 48 h
[2] = test system: UACC-62; assay: Cytotoxicity against human UACC62 cells after 48 hrs by SRB assay; format: functional, cell-based; conditions: UACC-62, 48 h
[3] = test system: MCF7; assay: Cytotoxicity against human MCF7 cells after 48 hrs by SRB assay; format: functional, cell-based; conditions: MCF7, 48 h
[4] = species: Homo sapiens; assay: Plasma concentration in human; format: ADME, organism-based; conditions: in vivo
[5] = test system: K562; assay: Cytotoxicity against human K562 cells by XTT assay; format: functional, cell-based
[6] = test system: TK-10; assay: Induction of apoptosis in human TK10 cells assessed as necrotic cells at 3 nM for 48 hrs measured after 3 days of drug removal by fluorescence microscopy assay; format: functional
[7] = test system: TK-10; assay: Induction of apoptosis in human TK10 cells assessed as viable cells at 3 nM for 48 hrs measured after 3 days of drug removal by fluorescence microscopy assay; format: functional; conditions: read-out: Activity
[8] = test system: TK-10; assay: Induction of apoptosis in human TK10 cells assessed as apoptotic cells at 3 nM for 48 hrs measured after 3 days of drug removal by fluorescence microscopy assay; format: functional
[9] = molecular target: DNA topoisomerase 2-beta (Homo sapiens) (UniProt Q02880); assay: Inhibition of topoisomerase 2beta in human K562 cells assessed as cleavage of supercoiled pRYG DNA at 300 nM after 24 hrs by TARDIS assay; format: cell-based
[10] = molecular target: DNA topoisomerase 2-alpha (Homo sapiens) (UniProt P11388); assay: Inhibition of topoisomerase 2alpha-mediated cleavage of double-stranded pRYG DNA assessed as linear DNA at 100 uM by agarose gel electrophoresis
[11] = molecular target: DNA topoisomerase 2-alpha (Homo sapiens) (UniProt P11388); assay: Inhibition of topoisomerase 2alpha-mediated cleavage of double-stranded pRYG DNA assessed as linear DNA at 100 nM by agarose gel electrophoresis
[12] = molecular target: DNA topoisomerase 2-alpha (Homo sapiens) (UniProt P11388); assay: Inhibition of topoisomerase 2alpha-mediated cleavage of double-stranded pRYG DNA assessed as linear DNA at 30 nM by agarose gel electrophoresis
[13] = molecular target: DNA topoisomerase 2-beta (Homo sapiens) (UniProt Q02880); assay: Inhibition of topoisomerase 2beta in human K562 cells assessed as cleavage of supercoiled pRYG DNA at 300 nM after 0.5 hrs by TARDIS assay relative to control; format: cell-based
[14] = molecular target: DNA topoisomerase 2-beta (Homo sapiens) (UniProt Q02880); assay: Inhibition of topoisomerase 2beta in human K562 cells assessed as cleavage of supercoiled pRYG DNA at 300 nM by TARDIS assay; format: cell-based; conditions: TDE = time-dependent effect

DNA topoisomerase 2-beta (Homo sapiens), sequence (Q02880 whole entry): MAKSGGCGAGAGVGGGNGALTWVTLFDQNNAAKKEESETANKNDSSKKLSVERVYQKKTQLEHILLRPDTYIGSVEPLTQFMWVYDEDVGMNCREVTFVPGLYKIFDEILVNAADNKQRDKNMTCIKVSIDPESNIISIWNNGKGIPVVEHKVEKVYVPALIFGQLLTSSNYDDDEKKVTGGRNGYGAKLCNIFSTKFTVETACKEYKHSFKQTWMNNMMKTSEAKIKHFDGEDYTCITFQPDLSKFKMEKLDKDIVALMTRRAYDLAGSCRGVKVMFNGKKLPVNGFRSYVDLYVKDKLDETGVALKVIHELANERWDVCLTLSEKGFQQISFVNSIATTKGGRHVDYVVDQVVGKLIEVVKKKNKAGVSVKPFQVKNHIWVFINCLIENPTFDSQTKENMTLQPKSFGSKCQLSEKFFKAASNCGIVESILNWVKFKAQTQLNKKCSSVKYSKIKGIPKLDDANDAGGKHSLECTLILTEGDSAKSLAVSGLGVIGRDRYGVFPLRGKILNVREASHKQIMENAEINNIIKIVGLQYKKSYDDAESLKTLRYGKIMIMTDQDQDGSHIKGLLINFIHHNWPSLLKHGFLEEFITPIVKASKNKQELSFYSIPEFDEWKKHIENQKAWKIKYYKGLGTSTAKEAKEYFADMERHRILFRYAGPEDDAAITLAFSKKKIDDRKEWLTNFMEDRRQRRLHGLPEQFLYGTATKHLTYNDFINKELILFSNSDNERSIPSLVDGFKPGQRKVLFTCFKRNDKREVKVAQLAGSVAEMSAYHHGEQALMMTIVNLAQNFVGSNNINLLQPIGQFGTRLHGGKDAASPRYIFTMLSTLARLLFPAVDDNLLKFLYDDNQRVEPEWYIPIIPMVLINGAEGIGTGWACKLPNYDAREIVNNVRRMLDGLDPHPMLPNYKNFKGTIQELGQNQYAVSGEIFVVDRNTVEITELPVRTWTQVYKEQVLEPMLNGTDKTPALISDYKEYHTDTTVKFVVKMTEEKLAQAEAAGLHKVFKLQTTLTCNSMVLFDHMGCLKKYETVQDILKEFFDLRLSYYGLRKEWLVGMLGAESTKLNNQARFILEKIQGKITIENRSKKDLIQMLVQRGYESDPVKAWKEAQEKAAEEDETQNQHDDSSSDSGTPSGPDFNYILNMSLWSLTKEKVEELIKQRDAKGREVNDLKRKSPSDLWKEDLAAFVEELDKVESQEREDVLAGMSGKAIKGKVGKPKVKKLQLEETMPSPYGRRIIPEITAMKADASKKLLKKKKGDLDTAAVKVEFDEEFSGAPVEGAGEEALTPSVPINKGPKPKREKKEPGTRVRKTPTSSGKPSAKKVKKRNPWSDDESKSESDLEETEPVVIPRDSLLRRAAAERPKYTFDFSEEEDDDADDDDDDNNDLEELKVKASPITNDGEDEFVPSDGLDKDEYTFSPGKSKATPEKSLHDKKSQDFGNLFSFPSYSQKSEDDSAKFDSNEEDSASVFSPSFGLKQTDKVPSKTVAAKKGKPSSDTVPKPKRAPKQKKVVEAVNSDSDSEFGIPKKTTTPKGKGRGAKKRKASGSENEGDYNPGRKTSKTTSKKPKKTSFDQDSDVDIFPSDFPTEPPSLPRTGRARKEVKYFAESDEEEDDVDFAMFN
DNA topoisomerase 2-alpha (Homo sapiens), sequence (P11388 whole entry): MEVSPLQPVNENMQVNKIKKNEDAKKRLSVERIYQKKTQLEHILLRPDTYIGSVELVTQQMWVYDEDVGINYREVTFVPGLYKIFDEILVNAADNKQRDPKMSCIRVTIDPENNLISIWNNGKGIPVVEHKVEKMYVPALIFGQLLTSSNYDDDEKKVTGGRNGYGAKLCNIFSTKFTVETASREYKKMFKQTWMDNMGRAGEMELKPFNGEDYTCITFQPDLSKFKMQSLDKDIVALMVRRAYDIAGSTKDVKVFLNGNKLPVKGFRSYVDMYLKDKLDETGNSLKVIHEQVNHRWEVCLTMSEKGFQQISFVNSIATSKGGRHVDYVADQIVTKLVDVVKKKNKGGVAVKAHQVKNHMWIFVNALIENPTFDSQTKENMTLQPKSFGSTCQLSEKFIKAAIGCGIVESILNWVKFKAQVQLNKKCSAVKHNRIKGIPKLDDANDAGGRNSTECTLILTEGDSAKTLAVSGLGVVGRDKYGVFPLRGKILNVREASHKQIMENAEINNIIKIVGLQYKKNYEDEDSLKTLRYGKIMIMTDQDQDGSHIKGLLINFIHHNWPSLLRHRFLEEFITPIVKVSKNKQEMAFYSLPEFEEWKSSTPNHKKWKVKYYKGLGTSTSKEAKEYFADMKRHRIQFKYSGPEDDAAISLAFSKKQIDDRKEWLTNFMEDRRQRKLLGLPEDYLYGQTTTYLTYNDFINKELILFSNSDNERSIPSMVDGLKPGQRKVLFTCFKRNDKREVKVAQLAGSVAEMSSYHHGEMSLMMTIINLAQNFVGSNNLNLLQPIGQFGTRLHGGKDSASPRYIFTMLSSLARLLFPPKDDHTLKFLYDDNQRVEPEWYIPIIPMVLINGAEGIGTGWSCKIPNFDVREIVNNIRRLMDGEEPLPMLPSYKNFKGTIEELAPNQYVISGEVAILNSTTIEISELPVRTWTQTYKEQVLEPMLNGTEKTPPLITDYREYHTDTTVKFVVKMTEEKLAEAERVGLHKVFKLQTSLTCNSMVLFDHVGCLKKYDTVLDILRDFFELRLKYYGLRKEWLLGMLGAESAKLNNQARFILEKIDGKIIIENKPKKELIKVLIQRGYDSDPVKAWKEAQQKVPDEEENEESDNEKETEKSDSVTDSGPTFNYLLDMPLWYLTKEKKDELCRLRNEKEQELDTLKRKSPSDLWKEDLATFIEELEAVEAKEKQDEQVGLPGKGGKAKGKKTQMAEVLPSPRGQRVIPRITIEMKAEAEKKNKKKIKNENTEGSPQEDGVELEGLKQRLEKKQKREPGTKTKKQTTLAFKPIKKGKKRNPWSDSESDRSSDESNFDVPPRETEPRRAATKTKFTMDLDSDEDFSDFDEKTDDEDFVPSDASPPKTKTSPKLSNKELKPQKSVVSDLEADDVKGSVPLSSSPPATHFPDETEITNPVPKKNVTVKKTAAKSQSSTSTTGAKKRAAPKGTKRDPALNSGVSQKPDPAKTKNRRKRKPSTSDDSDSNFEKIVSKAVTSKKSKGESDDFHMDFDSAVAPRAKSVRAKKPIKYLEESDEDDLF

| Compound | IC50 [1] | IC50 [2] | IC50 [3] | also measured |
| --- | --- | --- | --- | --- |
| C[C@]12CC[C@H](O)C[C@H]1CC[C@@H]1[C@@H]2CC[C@]2(C)[C@@H](C3=CC(=O)OC3)CC[C@]12O [DIGITOXIGENIN] | 76.5 nM | 349 nM | 194 nM |  |
| C[C@H]1O[C@@H](O[C@H]2[C@@H](O)C[C@H](O[C@H]3[C@@H](O)C[C@H](O[C@H]4CC[C@@]5(C)[C@H](CC[C@@H]6[C@@H]5C[C@@H](O)[C@]5(C)[C@@H](C7=CC(=O)OC7)CC[C@]65O)C4)O[C@@H]3C)O[C@@H]2C)C[C@H](O)[C@@H]1O [DIGOXIN] | 14.6 nM | 29.5 nM | 24.1 nM | concentration [4]: 0.6 nM; IC50 [5]: 28.2 nM |
| COc1cc([C@@H]2c3cc4c(cc3[C@@H](O[C@@H]3O[C@@H]5CO[C@@H](C)O[C@H]5[C@H](O)[C@H]3O)[C@H]3COC(=O)[C@H]23)OCO4)cc(OC)c1O [ETOPOSIDE] | 9950 nM | 1130 nM | 878 nM |  |
| C[C@H]1O[C@@H](O[C@H]2[C@@H](O)C[C@H](O[C@H]3[C@@H](O)C[C@H](O[C@H]4CC[C@@]5(C)[C@H](CC[C@@H]6[C@@H]5CC[C@]5(C)[C@@H](C7=CC(=O)OC7)CC[C@]65O)C4)O[C@@H]3C)O[C@@H]2C)C[C@H](O)[C@@H]1O [DIGITOXIN] | 3.2 nM | 33.5 nM | 10.2 nM | Activity [6]: 6.6%; concentration [4]: 19.6 nM; IC50 [5]: 6.4 nM; viability at 0.003 µM [7]: 52.1%; Activity [8]: 41.3%; Activity [9]: Active; Activity [10]: Active; Activity [11]: inactive; Activity [12]: inactive; Activity [13]: Active; Activity [14]: tde |
| C[C@H]1O[C@@H](O[C@H]2[C@@H](O)C[C@H](O[C@H]3[C@@H](O)C[C@H](O[C@H]4CC[C@@]5(C)[C@H](CC[C@@H]6[C@@H]5CC[C@]5(C)[C@@H](C7=CC(=O)OC7)[C@@H](O)C[C@]65O)C4)O[C@@H]3C)O[C@@H]2C)C[C@H](O)[C@@H]1O [GITOXIN] | 131 nM | 369 nM | 252 nM |  |
| C[C@]12CC[C@H](O)C[C@H]1CC[C@@H]1[C@@H]2C[C@@H](O)[C@]2(C)[C@@H](C3=CC(=O)OC3)CC[C@]12O [DIGOXIGENIN] | 318 nM | 416 nM | 507 nM |  |
| C[C@]12CC[C@H](O)C[C@H]1CC[C@@H]1[C@@H]2CC[C@]2(C)[C@@H](C3=CC(=O)OC3)[C@@H](O)C[C@]12O [GITOXIGENIN] | 416 nM | 2840 nM | 1810 nM |  |

— ChEMBL document CHEMBL1158830, “Digitoxin inhibits the growth of cancer cell lines at concentrations commonly found in cardiac patients” (J Nat Prod, 2005)
